Consider six compounds from patent US20240002425A1, “NOVEL AMINOALKYL GLUCOSAMINIDE 4-PHOSPHATE DERIVATIVE” (DAIICHI SANKYO COMPANY, LIMITED, priority 2020, published 2024).

In one assay the test system is SARS-CoV-2 RBD. The note with it: mouse, in vivo.
For another assay, the target named is human TLR4 (Homo sapiens, UniProt O00206+Q9Y6Y9). As to the kind of experiment: Human TLR4 activating effect (HEK-Blue Human TLR4 Cells, SEAP reporter). It counts as cell-based. Particulars: 24 hours, SEAP Protein concentration. Here is the method: The human TLR4 activating effect was studied using the compounds described in Examples 1 to 17 and monophosphoryl lipid A as Comparative Example A.
Triethanolamine was dissolved at 0.5% (v/v) in injectable distilled water to prepare an aqueous triethanolamine solution. 1 mg of each test drug was dissolved in 0.98 mL of the aqueous triethanolamine solution, and pH of the solution was then adjusted to 7.2 to 7.4 by the addition of 20 μL of 1 M HCl to prepare a 1 mg/mL solution. A dilution series of the test drug was prepared using a medium [DMEM (Nacalai Tesque, Inc.), 10% FBS (Sigma-Aldrich Co. LLC), 50 U/mL penicillin-50 μg/mL streptomycin (Thermo Fisher Scientific Inc.), 1×HEK-Blue Selection (InvivoGen), and 100 μg/mL Normocin (InvivoGen)]. 2×10^5 cells/mL HEK-Blue™ Human TLR4 Cells (InvivoGen) were inoculated to each well of a 96-well microplate for tissue culture (Iwaki), then treated with the test drug, and cultured at 37° C. for 24 hours under 5% CO2. The cells thus cultured were centrifuged at 400×g at 4° C. for 3 minutes. Recombinant SEAP Protein (InvivoGen) was used for a calibration curve. After addition of 180 μL of QUANTI-Blue (InvivoGen) to each well of 96 Well TC-Treated Microplates (Corning, Inc.), 20 μL each of the cell culture supernatant and a standard diluting solution was added to each well, and the plate was left standing at 37° C. for 4 hours. After reaction, absorbance (wavelength: 655 nm) was measured using a microplate reader (PerkinElmer, Inc., EnSpire), and a SEAP Protein concentration was calculated from the calibration curve and used as an index for TLR4 agonist activity. A drug concentration that induced reaction corresponding to 50% of the maximum reaction was calculated as EC50 (ng/mL) from a linear expression using two drug concentrations between which the drug concentration that induced reaction corresponding to 50% of the maximum reaction in each experiment was positioned, and measured values thereof.

Assay [1] has as its system various allergens (Japanese cedar pollen, mite, ragweed, timothy, peanut, milk). As to the kind of experiment: Immunostimulatory effect on various allergens by sublingual administration (allergen-specific IgG titer). It is filed as in vivo, mouse. The note with it: allergen-sensitized mice, sublingual with allergen, up to 12 weeks; all the allergens; compared with allergen alone. Here is the method:
The compound described in Example 2(2e) was used to study its immunostimulatory effect on various allergens by sublingual administration.
Japanese cedar pollen antigen extracts were prepared by treating Japanese cedar pollen (Yamizo Pollen Study Group) with a solution containing 0.125 M NaHCO3 and 0.5 M NaCl for 24 hours (4° C.), and then insoluble matter was removed by filtration. The concentration of Cry j 1 contained in the extracts was measured, and the extracts were diluted into 12.5 μg/mL (10000 JAU/mL). Allergen scratch extracts (Torii Pharmaceutical Co., Ltd.) were used as mite, ragweed, timothy, peanut, and milk. Allergen sensitization was performed by intramuscularly administering the allergen (20 μL) to the mouse femoral region 1 week before the start of sublingual administration. The allergen scratch extracts of mite, ragweed, timothy, peanut, or milk were diluted 10-fold with PBS and used in allergen sensitization. Sublingual administration was started from 1 week after sensitization. […]
Each allergen was added at 25 μL/well (Japanese cedar pollen, 1 μg Cry j 1/mL; mite, ragweed, timothy, peanut, and milk, 1:1000 diluted) to a plate for ELISA, which was then left standing overnight at 4° C. […] Then, 30 μL of a TMB stop solution was added to each well, and absorbance at 450 nm was measured. […]

Setting [2] is: read-out: EC50 (ng/ml) (converted).

Like-named read-outs stand apart in the source and are kept apart here. Where only a bound is given, the exact number is not on record here.

Chain of human TLR4 (O00206 24-839): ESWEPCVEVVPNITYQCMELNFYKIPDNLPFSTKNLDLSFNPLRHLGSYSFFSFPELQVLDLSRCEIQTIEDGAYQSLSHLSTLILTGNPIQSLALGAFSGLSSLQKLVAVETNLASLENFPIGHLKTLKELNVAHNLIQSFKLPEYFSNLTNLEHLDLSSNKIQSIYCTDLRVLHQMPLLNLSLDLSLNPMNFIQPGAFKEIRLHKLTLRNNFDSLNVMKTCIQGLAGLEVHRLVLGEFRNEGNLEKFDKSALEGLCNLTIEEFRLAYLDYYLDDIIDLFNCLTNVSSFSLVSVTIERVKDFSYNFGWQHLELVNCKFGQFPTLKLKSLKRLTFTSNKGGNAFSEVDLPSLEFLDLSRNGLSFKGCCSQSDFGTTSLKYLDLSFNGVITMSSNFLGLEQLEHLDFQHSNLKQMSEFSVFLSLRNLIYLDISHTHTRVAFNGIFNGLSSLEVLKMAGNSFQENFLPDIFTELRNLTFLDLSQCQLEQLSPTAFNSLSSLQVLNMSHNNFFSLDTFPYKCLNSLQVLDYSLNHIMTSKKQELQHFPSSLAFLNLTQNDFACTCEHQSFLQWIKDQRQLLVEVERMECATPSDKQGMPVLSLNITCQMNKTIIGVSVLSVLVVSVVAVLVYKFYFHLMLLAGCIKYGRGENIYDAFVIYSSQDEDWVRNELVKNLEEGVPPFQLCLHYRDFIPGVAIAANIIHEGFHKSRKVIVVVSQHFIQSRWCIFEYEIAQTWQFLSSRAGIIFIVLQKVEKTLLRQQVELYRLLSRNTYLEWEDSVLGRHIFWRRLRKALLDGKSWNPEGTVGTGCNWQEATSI
Chain of human TLR4 (Q9Y6Y9 17-160 limits assumed): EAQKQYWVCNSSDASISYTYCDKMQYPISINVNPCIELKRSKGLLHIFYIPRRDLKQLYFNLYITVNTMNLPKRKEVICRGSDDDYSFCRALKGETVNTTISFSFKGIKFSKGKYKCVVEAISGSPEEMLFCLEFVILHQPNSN

Regarding `CCCCCCCCCCC[C@H](CC(=O)N[C@@H](CO[C@@H]1O[C@H](CO[C@]2(C(=O)O)C[C@@H](O)[C@@H](O)[C@@H]([C@H](O)CO)O2)[C@@H](OP(=O)(O)O)[C@H](OC(=O)C[C@@H](CCCCCCCCCCC)OC(=O)CCCCCCCCC)[C@H]1NC(=O)C[C@@H](CCCCCCCCCCC)OC(=O)CCCCCCCCC)CC(=O)O)OC(=O)CCCCCCCCC` [Example 2(2e), Ammonium (3R)-3-{[(3R)-3-(decanoyloxy)tetradecanoyl]amino}-4-({3-O-[(3R)-3-(decanoyloxy)tetradecanoyl]-2-{[(3R)-3-(decanoyloxy)tetradecanoyl]amino}-2-deoxy-6-O-(3-deoxy-α-D-manno-oct-2-ulopyranonosyl)-4-O-phosphono-β-D-glucopyranosyl}oxy)butanoate], in the assay on SARS-CoV-2 RBD, the “anti-RBD IgA in blood” value is recorded as “markedly high”, the “anti-RBD IgA in nasal wash” value was “induced at a high level” and the “anti-RBD IgG in blood” value is on record as “markedly high”. On human TLR4 (setting [2]), the EC50 was 0.0499 nM. Also, the “allergen-specific IgG titer in blood” value in assay [1] was “markedly higher”.

Take `CCCCCCCCCCC[C@H](CC(=O)NC1C(CC[C@@H](CC(=O)O)NC(=O)C[C@@H](CCCCCCCCCCC)OC(=O)CCCCCCCCC)OC(COC2(C(=O)O)CC(OC3(C(=O)O)CC(O)C(O)C([C@H](O)CO)O3)C(O)C([C@H](O)CO)O2)C(OP(=O)(O)O)C1OC(=O)C[C@@H](CCCCCCCCCCC)OC(=O)CCCCCCCCC)OC(=O)CCCCCCCCC` (stereo partly drawn) [Example 12(12d), Ammonium 3-deoxy-α-D-manno-oct-2-ulopyranonosyl-(2-+4)-3-deoxy-α-D-manno-oct-2-ulopyranonosyl-(2-+11)-6,10-anhydro-8-O-[(3R)-3-(decanoyloxy)tetradecanoyl]-3,7-bis{[(3R)-3-(decanoyloxy)tetradecanoyl]amino}-2,3,4,5,7-pentadeoxy-9-O-phosphono-D-erythro-L-galacto-undecanoate]: the EC50 on human TLR4 (setting [2]) is 0.67 nM.

As to “monophosphoryl lipid A [Comparative Example A, reference compound]”, the “EC50” value on human TLR4 is more than 0.01 µg/mL.

Consider `CCCCCCCCCCC[C@H](CC(=O)NC1C(CC[C@@H](CC(=O)O)NC(=O)C[C@@H](CCCCCCCCCCC)OC(=O)CCCCCCCCC)OC(CO)C(OP(=O)(O)O)C1OC(=O)C[C@@H](CCCCCCCCCCC)OC(=O)CCCCCCCCC)OC(=O)CCCCCCCCC` (stereo partly drawn) [Example 10(10r), Ammonium 6,10-anhydro-8-O-[(3R)-3-(decanoyloxy)tetradecanoyl]-3,7-bis{[(3R)-3-(decanoyloxy)tetradecanoyl]amino}-2,3,4,5,7-pentadeoxy-9-O-phosphono-D-erythro-L-galacto-undecanoate], for which the EC50 on human TLR4 (setting [2]) is 0.667 nM.

On to `CCCCCCCCCCC[C@H](CC(=O)NC1C(CC[C@H](NC(=O)C[C@@H](CCCCCCCCCCC)OC(=O)CCCCCCCCC)C(=O)O)OC(CO)C(OP(=O)(O)O)C1OC(=O)C[C@@H](CCCCCCCCCCC)OC(=O)CCCCCCCCC)OC(=O)CCCCCCCCC` (stereo partly drawn) [Example 13(130), Ammonium 5,9-anhydro-7-O-[(3R)-3-(decanoyloxy)tetradecanoyl]-2,6-bis{[(3R)-3-(decanoyloxy)tetradecanoyl]amino}-2,3,4,6-tetradeoxy-8-O-phosphono-D-erythro-L-galacto-decanoate], for which the EC50 at human TLR4 (setting [2]) was 1.61 nM.

Consider `CCCCCCCCCCC[C@H](CC(=O)N[C@H]1[C@H](OC[C@H](NC(=O)C[C@@H](CCCCCCCCCCC)OC(=O)CCCCCCCCC)C(=O)O)O[C@H](CO[C@@H]2O[C@H](CO)[C@@H](OP(=O)(O)O)[C@H](O)[C@H]2NC(C)=O)[C@@H](OP(=O)(O)O)[C@@H]1OC(=O)C[C@@H](CCCCCCCCCCC)OC(=O)CCCCCCCCC)OC(=O)CCCCCCCCC` [Example 8(8f), Ammonium (2S)-3-({6-O-[2-acetamido-2-deoxy-4-O-(hydroxyphosphinato)-β-D-glucopyranosyl]-3-O-[(3R)-3-(decanoyloxy)tetradecanoyl]-2-{[(3R)-3-(decanoyloxy)tetradecanoyl]amino}-2-deoxy-4-O-phosphono-β-D-glucopyranosyl}oxy)-2-{[(3R)-3-(decanoyloxy)tetradecanoyl]amino}propanoate], for which, on human TLR4 (setting [2]), the EC50 was 0.35 nM.
